Experimental data published in US20200190087A1 (priority 2016, published 2020).

Legend:
[1] = target: Human α2δ-1 subunit of Cav2.2 calcium channel (Homo sapiens, UniProt P54289); assay: Human α2δ-1 subunit of Cav2.2 calcium channel assay ([3H]-Gabapentin binding); details: human α2δ-1 enriched membranes, 15 nM [3H]-Gabapentin, binding expressed as Ki; read-out: α2δ1 binding activity
Method: Human α2δ-1 Subunit of Cav2.2 Calcium Channel Assay
Human α2δ-1 enriched membranes (2.5 μg) were incubated with 15 nM of radiolabeled [3H]-Gabapentin in assay buffer containing Hepes-KOH 10 mM, pH 7.4. NSB (non specific binding) was measured by adding 10 μM pregabalin. The binding of the test compound was measured at five different concentrations. After 60 min incubation at 27° C., binding reaction was terminated by filtering through Multiscreen GF/C (Millipore) presoaked in 0.5% polyethyleneimine in Vacuum Manifold Station, followed by 3 washes with ice-cold filtration buffer containing 50 mM Tris-HCl, pH 7.4. Filter plates were dried at 60° C. for 1 hour and 30 μl of scintillation cocktail were added to each well before radioactivity reading. Readings were performed in a Trilux 1450 Microbeta radioactive counter (Perkin Elmer).

[2] = target: T1, human μ-opioid receptor (Homo sapiens, UniProt P35372); assay: Human μ-opioid receptor radioligand assay ([3H]-DAMGO); assay type: binding; details: transfected CHO-K1 cell membranes, 1 nM [3H]-DAMGO, binding expressed as Ki; read-out: Mu binding activity
T1 construct: expressed in transfected cells; host or cells: CHO-K1
T1 sequence (P35372 whole entry): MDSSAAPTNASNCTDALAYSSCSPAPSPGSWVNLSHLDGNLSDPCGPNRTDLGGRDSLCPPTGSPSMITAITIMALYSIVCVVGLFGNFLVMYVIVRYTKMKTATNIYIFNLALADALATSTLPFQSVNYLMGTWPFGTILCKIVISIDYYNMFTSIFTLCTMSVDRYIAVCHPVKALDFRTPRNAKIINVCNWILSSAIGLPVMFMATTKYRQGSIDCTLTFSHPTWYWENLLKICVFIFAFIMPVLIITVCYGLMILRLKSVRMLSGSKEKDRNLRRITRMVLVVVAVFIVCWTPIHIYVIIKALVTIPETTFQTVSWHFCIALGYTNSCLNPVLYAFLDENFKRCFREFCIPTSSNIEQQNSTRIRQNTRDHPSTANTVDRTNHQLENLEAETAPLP
Method: Human μ-Opioid Receptor Radioligand Assay
To investigate binding properties of test compounds to human μ-opioid receptor, transfected CHO-K1 cell membranes and [^3H]-DAMGO (Perkin Elmer, ES-542-C), as the radioligand, were used. The assay was carried out with 20 μg of membrane suspension, 1 nM of [^3H]-DAMGO in either absence or presence of either buffer or 10 μM Naloxone for total and non-specific binding, respectively. Binding buffer contained Tris-HCl 50 mM, MgCl2 5 mM at pH 7.4. Plates were incubated at 27° C. for 60 minutes. After the incubation period, the reaction mix was then transferred to MultiScreen HTS, FC plates (Millipore), filtered and plates were washed 3 times with ice-cold 10 mM Tris-HCL (pH 7.4). Filters were dried and counted at approximately 40% efficiency in a MicroBeta scintillation counter (Perkin-Elmer) using EcoScint liquid scintillation cocktail. Preferably, transfected CHO-K1 cell membranes (20 μg) were incubated with 1 nM of [^3H]-DAMGO in assay buffer containing Tris-HCl 50 mM, MgCl2 5 mM at pH 7.4. NBS (non-specific binding) was measured by adding 10 μM Naloxone. The binding of the test compound was measured at five different concentrations. Plates were incubated at 27° C. for 60 minutes. After the incubation period, the reaction mix was then transferred to MultiScreen HTS, FC plates (Millipore), filtered and plates were washed 3 times with ice-cold 10 mM Tris-HCL (pH 7.4). Filters were dried and counted at approximately 40% efficiency in a MicroBeta scintillation counter (Perkin-Elmer) using EcoScint liquid scintillation cocktail.

Sequence of Human α2δ-1 subunit of Cav2.2 calcium channel (P54289 25-1103): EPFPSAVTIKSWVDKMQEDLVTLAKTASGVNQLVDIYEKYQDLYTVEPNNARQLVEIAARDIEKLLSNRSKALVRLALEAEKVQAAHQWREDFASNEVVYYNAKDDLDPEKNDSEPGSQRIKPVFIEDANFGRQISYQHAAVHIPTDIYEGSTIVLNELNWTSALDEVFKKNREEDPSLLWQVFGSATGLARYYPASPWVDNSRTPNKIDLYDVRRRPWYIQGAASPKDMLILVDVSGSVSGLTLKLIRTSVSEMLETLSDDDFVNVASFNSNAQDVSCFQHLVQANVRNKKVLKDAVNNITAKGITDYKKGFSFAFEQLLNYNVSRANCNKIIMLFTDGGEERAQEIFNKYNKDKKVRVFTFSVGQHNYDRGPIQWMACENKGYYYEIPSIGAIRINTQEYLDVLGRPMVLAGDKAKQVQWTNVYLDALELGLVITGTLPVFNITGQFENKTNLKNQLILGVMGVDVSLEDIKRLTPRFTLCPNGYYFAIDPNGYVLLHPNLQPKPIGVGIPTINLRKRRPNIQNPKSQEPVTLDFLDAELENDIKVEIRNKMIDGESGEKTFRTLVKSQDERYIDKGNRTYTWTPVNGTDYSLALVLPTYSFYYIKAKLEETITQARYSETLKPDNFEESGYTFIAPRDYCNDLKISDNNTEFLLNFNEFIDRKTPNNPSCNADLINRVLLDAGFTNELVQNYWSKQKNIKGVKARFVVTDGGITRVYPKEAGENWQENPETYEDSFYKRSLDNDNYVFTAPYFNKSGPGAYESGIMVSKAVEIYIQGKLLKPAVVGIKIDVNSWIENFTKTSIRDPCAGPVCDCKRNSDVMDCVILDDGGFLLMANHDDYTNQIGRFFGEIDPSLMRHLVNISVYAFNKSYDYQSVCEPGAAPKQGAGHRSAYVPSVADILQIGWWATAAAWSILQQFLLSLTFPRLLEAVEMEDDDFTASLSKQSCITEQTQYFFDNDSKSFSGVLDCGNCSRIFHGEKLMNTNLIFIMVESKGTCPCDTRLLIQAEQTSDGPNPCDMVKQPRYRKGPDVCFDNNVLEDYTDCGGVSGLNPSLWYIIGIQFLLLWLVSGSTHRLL

SMILES	Ki [1]	Ki [2]
CCOc1ccc(-n2nc3c(C4CCN(CC(O)c5ccccc5)CC4)nnc(C)c3c2C)c(F)c1 (stereo not drawn) [Ex 58, 2-(4-(2-(4-Ethoxy-2-fluorophenyl)-3,4-dimethyl-2H-pyrazolo[3,4-d]pyridazin-7-yl)piperidin-1-yl)-1-phenylethan-1-ol]	500 to 3000 nM	> 500 nM
CCOc1ccc(-n2nc3c(C#N)nnc(C)c3c2C)c(F)c1 [Ex 59, 2-(4-Ethoxy-2-fluorophenyl)-3,4-dimethyl-2H-pyrazolo[3,4-d]pyridazine-7-carbonitrile]	≥ 5000 nM	> 500 nM
CCOc1ccc(-n2nc3c(CN4CCC(c5cccc(O)c5)CC4)nnc(C)c3c2C)c(F)c1 [Ex 60, 3-(1-((2-(4-Ethoxy-2-fluorophenyl)-3,4-dimethyl-2H-pyrazolo[3,4-d]pyridazin-7-yl)methyl)piperidin-4-yl)phenol]	500 to 3000 nM	> 500 nM
CCOc1ccc(-n2nc3c(C(C#N)C(=O)OC(C)(C)C)nnc(C)c3c2C)c(F)c1 (stereo not drawn) [Ex 61, tert-Butyl 2-cyano-2-(2-(4-ethoxy-2-fluorophenyl)-3,4-dimethyl-2H-pyrazolo[3,4-d]pyridazin-7-yl)acetate]	500 to 3000 nM	> 500 nM
CCOc1ccc(-n2nc3c(CC#N)nnc(C)c3c2C)c(F)c1 [Ex 62, 2-(2-(4-Ethoxy-2-fluorophenyl)-3,4-dimethyl-2H-pyrazolo[3,4-d]pyridazin-7-yl)acetonitrile]	500 to 3000 nM	> 500 nM
CCOc1ccc(-n2nc3c(CCNC(=O)OC(C)(C)C)nnc(C)c3c2C)c(F)c1 [Ex 63, tert-Butyl (2-(2-(4-ethoxy-2-fluorophenyl)-3,4-dimethyl-2H-pyrazolo[3,4-d]pyridazin-7-yl)ethyl)carbamate]	≥ 5000 nM	> 500 nM
CCOc1ccc(-n2nc3c(C(C#N)(Cc4ccccc4)C(=O)OC(C)(C)C)nnc(C)c3c2C)c(F)c1 (stereo not drawn) [Ex 64, tert-Butyl 2-cyano-2-(2-(4-ethoxy-2-fluorophenyl)-3,4-dimethyl-2H-pyrazolo[3,4-d]pyridazin-7-yl)-3-phenylpropanoate]	≥ 5000 nM	> 500 nM
CCOc1ccc(-n2nc3c(C(C#N)Cc4ccccc4)nnc(C)c3c2C)c(F)c1 (stereo not drawn) [Ex 65, 2-(2-(4-Ethoxy-2-fluorophenyl)-3,4-dimethyl-2H-pyrazolo[3,4-d]pyridazin-7-yl)-3-phenylpropanenitrile]	500 to 3000 nM	> 500 nM

Next, values leading:

Ki [1]	Ki [2]	SMILES
500 to 3000 nM	> 500 nM	CCOc1ccc(-n2nc3c(C4CCN(Cc5ccc(O)cn5)CC4)nnc(C)c3c2C)c(F)c1 [Ex 54, 6-((4-(2-(4-Ethoxy-2-fluorophenyl)-3,4-dimethyl-2H-pyrazolo[3,4-d]pyridazin-7-yl)piperidin-1-yl)methyl)pyridin-3-ol]
500 to 3000 nM	> 500 nM	CCOc1ccc(-n2nc3c(C4CCN(Cc5ccc(F)cn5)CC4)nnc(C)c3c2C)c(F)c1 [Ex 55, 2-(4-Ethoxy-2-fluorophenyl)-7-(1-((5-fluoropyridin-2-yl)methyl)piperidin-4-yl)-3,4-dimethyl-2H-pyrazolo[3,4-d]pyridazine]
500 to 3000 nM	> 500 nM	CCOc1ccc(-n2nc3c(C4CCN(Cc5ccc(C(F)(F)F)cn5)CC4)nnc(C)c3c2C)c(F)c1 [Ex 56, 2-(4-Ethoxy-2-fluorophenyl)-3,4-dimethyl-7-(1-((5-(trifluoromethyl)pyridin-2-yl)methyl)piperidin-4-yl)-2H-pyrazolo[3,4-d]pyridazine]
500 to 3000 nM	> 500 nM	CCOc1ccc(-n2nc3c(C4CCN(CCc5ccncc5)CC4)nnc(C)c3c2C)c(F)c1 [Ex 57, 2-(4-Ethoxy-2-fluorophenyl)-3,4-dimethyl-7-(1-(2-(pyridin-4-yl)ethyl)piperidin-4-yl)-2H-pyrazolo[3,4-d]pyridazine]
